Reference: US6403574B1, “Azetidinecarboxamide derivatives for treating CNS disorders” (Vernalis Research Limited, priority 1998, dated 2002)

What was measured:
[1] = system: 3-MPA-induced seizures in T/O strain mice; experiment: Antagonism of 3-MPA-induced seizures; type: in vivo, mouse; conditions: test drug 30 mg/kg p.o. 60 min before 3-MPA i.v.
Description: Antagonism of 3-MPA-Induced Seizures Several animal seizure models are available for the screening and characterisation of anticonvulsant (antiepileptic) drugs. Most models employ a chemical convulsant to induce seizures and the anticonvulsant potencies of novel compounds are measured in terms of their ability to increase the dose of convulsant required to induce a seizure response (or to prolong the latency to seizure onset following a bolus dose of the convulsant). Most chemical convulsants work by blocking the neurotransmitter function of gamma-aminobutyric acid (GABA), the predominant inhibitory neurotransmitter in the mammalian brain. This can be achieved by blocking the postsynaptic action of GABA using pentylenetetrazol or bicuculline, or via a presynaptic action using a GABA synthesis inhibitor to decrease GABA release into the synapse. In this case, the inhibitor of glutamate decarboxylase (GAD), 3-mercaptopropionic acid (3-MPA), was used as the convulsant challenge agent. […] Male albino T/O strain mice (obtained from Tuck) weighing 28-40 g were used in these studies. Animals were assigned randomly to treatment groups and vehicle or test drug (at a dose of 30 mg/kg) were administered p.o. to groups of 12 animals 60 min before the administration of a bolus dose of 3-MPA intravenously. Immediately following 3-MPA administration, each mouse was placed individually into a cage for observation. The seizure response of each animal was scored quantally as present or absent (response or non-response) during the 5 min period immediately following 3-MPA administration. A seizure response was defined as the onset of the initial clonic phase of the seizure (abrupt loss of righting reflex accompanied by vocalisation). The seizure threshold (in terms of mg/kg i.v. of 3-MPA required to evoke a seizure response) was determined in each treatment group by a sequential up/down method followed by modified probit analysis of the quantal data. A range of doses of 3-MPA was prepared (12.5-200.0 mg/kg i.v.) increasing by a constant geometric factor […], which was found in pilot studies to generate suitable data for analysis by this method. In these studies, 3-MPA was obtained from Sigma. Test compounds were prepared as solutions dissolved in 45% w/v aqueous 2-hydroxypropyl-β-cyclodextrin. 3-MPA was dissolved in isotonic saline and its pH adjusted to 6 using 1M sodium hydroxide solution. Drugs were administered in a dose volume of 10 ml/kg body weight. SC=seizure threshold after treatment with test drug SV=seizure threshold in vehicle treated group

[2] = biological target: GABAA receptor; experiment: Binding affinity to the GABAA receptor with [35S]-TBPS; conditions: membranes from rat fore-brain; [35S]-TBPS 1 nM; read-out: IC50, concentration required to displace 50% of the specific [35S]-TBPS binding
Description: Measurement of Binding Affinity to the GABAA Receptor with [^35S]-TBPS
The ability of test compounds to bind to the GABAA receptor was measured in membranes prepared from rat fore-brain using the procedure described by Green et al (Green, A. R., Misra, A., Murray, T. K., Snape, M. F. & Cross, A. J. Neurophamacology, 1996, 35, 1243-1250).
Binding assays were performed in plastic microtitre plates. In each study total assay volume contained [^35S]-TBPS (1 nM final concentration), membrane preparation and displacing drugs where appropriate. Drug solutions were prepared at a concentration of 10 mM in an appropriate solvent (EtOH, DMSO or H2O) and then diluted with assay buffer. Non-specific binding was determined using GABA. The free ligand concentration was determined by counting aliquots of the [^35S]-TBPS solution. The concentration of test compounds required to displace 50% of the specific binding (IC50) was determined from displacement curves.

[3] = system: elevated zero-maze model of anxiety; experiment: Anxiolytic activity in the elevated zero-maze model; type: in vivo, rat; conditions: dose of 30 mg/Kg, orally 1 hour prior to zero-maze testing
Source text: Measurement of Anxiolytic Activity in Mice Using the Elevated Zero-maze Model
Food and water are made freely available.
The maze is cleaned with a 5% methanol/water solution and dried thoroughly between test sessions.

Compound	melting point [°C]	further results
C=CCNC(=O)N1CC(OCc2ccc(F)cc2)C1 [Example 5, 3-(4-Fluorobenzyloxy)-N-(2-propenyl)azetidine-1-carboxamide]	–	SC = seizure threshold after treatment with test drug [1]: 42.8 mg/kg i.v. of 3-MPA
CCCNC(=O)N1CC(OCc2ccc(Cl)c(Cl)c2)C1 [Example 13]	89 to 90	–
C[C@H](O)CNC(=O)N1CC(OCc2ccc(C(F)(F)F)cc2)C1 [Example 21]	97 to 98	–
C[C@H](O)CNC(=O)N1CC(OCc2ccc(F)cc2)C1 [Example 27]	73 to 74	–
C=CCNC(=O)N1CC(OCc2cc(F)ccc2F)C1 [Example 29]	75	–
C=CCNC(=O)N1CC(OCc2cc(F)cc(F)c2)C1 [Example 31]	79	–
C[C@@H](O)CNC(=O)N1CC(OCc2ccc(F)cc2)C1 [Example 40]	72 to 73	–
C=CCNC(=O)N1CC(OCc2cccc(Cl)c2)C1 [Example 14]	67 to 68	–
CCCNC(=O)N1CC(OCc2cccc(C(F)(F)F)c2)C1 [Example 17]	62 to 63	–
C=CCNC(=O)N1CC(OCc2ccc(-c3ccccc3)cc2)C1 [Example 11]	160	–
C=CCNC(=O)N1CC(OCc2ccc(Cl)c(Cl)c2)C1 [Example 2, 3-(3,4-Dichlorobenzyloxy)-N-(2-propenyl)azetidine-1-carboxamide]	88 to 89	IC50 [2]: 56 µM; SC = seizure threshold after treatment with test drug [1]: 66.7 mg/kg i.v. of 3-MPA
C=CCNC(=O)N1CC(OCc2ccc(Cl)cc2)C1 [Example 1, 3-(4-Chlorobenzyloxy)-N-(2-propenyl)azetidine-1-carboxamide]	110 to 111	SC = seizure threshold after treatment with test drug [1]: 35.98 mg/kg i.v. of 3-MPA; Anxiolytic activity (increase in the frequency of head dips) [3]: effective
C[C@H](O)CNC(=O)N1CC(OCc2ccc(Cl)cc2)C1 [Example 36]	76 to 78	–
C=CCNC(=O)N1CC(OCc2cccc(C(F)(F)F)c2)C1 [Example 3, 3-(3-(Trifluoromethyl)benzyloxy)-N-(2-propenyl)azetidine-1-carboxamide]	108	IC50 [2]: 87 µM; SC = seizure threshold after treatment with test drug [1]: 129.3 mg/kg i.v. of 3-MPA
C[C@@H](O)CNC(=O)N1CC(OC(c2ccc(Cl)cc2)c2ccc(Cl)cc2)C1 [Example 7, (R)-3-(Bis(4-chlorophenyl)methoxy)-N-(2-hydroxypropyl)azetidine-1-carboxamide]	–	IC50 [2]: 32 µM
CCCNC(=O)N1CC(OCc2ccc(C(F)(F)F)cc2)C1 [Example 16]	128 to 129	–
C=CCNC(=O)N1CC(OC(c2ccc(Cl)cc2)c2ccc(Cl)cc2)C1 [Example 6, 3-(Bis(4-chlorophenyl)methoxy)-N-(2-propenyl)azetidine-1-carboxamide]	–	IC50 [2]: 64 µM
C#CCNC(=O)N1CC(OCc2ccc(C(C)(C)C)cc2)C1 [Example 38]	94 to 96	–
C=CCNC(=O)N1CC(OCc2ccc(C#N)cc2)C1 [Example 10]	95 to 96	–

Compound	melting point [°C]	further results
C[C@@H](O)CNC(=O)N1CC(OCc2ccc(C(F)(F)F)cc2)C1 [Example 20]	97 to 98	–
C#CCNC(=O)N1CC(OCc2ccc(Cl)cc2)C1 [Example 37]	123 to 124	–
C[C@@H](O)CNC(=O)N1CC(OCc2cccc(C(F)(F)F)c2)C1 [Example 19]	67 to 68	–
C=CCNC(=O)N1CC(OCc2ccc(F)cc2F)C1 [Example 34]	91 to 92.5	–
C#CCNC(=O)N1CC(OCc2cccc(C(F)(F)F)c2)C1 [Example 25]	90 to 91	–
C=CCNC(=O)N1CC(OCc2cccc(F)c2)C1 [Example 15]	59 to 60	–
C#CCNC(=O)N1CC(OCc2ccc(F)cc2)C1 [Example 43]	94 to 96	–
C=CCNC(=O)N1CC(OCc2ccc3ccccc3c2)C1 [Example 12]	141 to 142	–
C=CCNC(=O)N1CC(OCc2ccc(C(C)(C)C)cc2)C1 [Example 41]	79 to 80	–
C[C@H](O)CNC(=O)N1CC(OCc2ccc(Cl)c(Cl)c2)C1 [Example 23]	88 to 89	–
C=CCNC(=O)N1CC(OCc2ccc(F)c(F)c2)C1 [Example 33]	82.5 to 85	–
C=CCNC(=O)N1CC(OCc2ccccc2)C1 [Example 26]	76 to 77	–
C[C@@H](O)CNC(=O)N1CC(OCc2ccc(Cl)c(Cl)c2)C1 [Example 22]	88 to 89	–
C=CCNC(=O)N1CC(OCc2ccc(Cl)cc2Cl)C1 [Example 30]	100	–
C[C@H](O)CNC(=O)N1CC(OCc2cccc(C(F)(F)F)c2)C1 [Example 18]	67 to 68	–
C=CCNC(=O)N1CC(OCc2cc(C(F)(F)F)cc(C(F)(F)F)c2)C1 [Example 35]	80.5 to 81.5	–
C=CCNC(=O)N1CC(OCc2ccc(C(F)(F)F)cc2)C1 [Example 4, 3-(4-(Trifluoromethyl)benzyloxy)-N-(2-propenyl)azetidine-1-carboxamide]	120	IC50 [2]: 91 µM; SC = seizure threshold after treatment with test drug [1]: 75.7 mg/kg i.v. of 3-MPA
C[C@H](O)CNC(=O)N1CC(OCc2ccc(Cl)cc2)C1 [Example 24]	85 to 86	–
C=CCNC(=O)N1CC(OCc2ccccc2C(F)(F)F)C1 [Example 28]	63	–
